Assay results published in patent US20120052017A1, “METHOD FOR PRODUCING CONTRAST AGENT FOR OPTICAL IMAGING” (CANON KABUSHIKI KAISHA, priority 2010, published 2012).

Legend:
[1] = Solubility of ICG in dichloromethane when phospholipid was added; format: physicochemical; settings: phospholipid not added; inferred by comparison with ICG-methanol solution
Protocol: 2 molar equivalents of a phospholipid was added to 5.5 mg of ICG. As the phospholipid, DSPC or DOPE was used. Each of these ICG-phospholipid mixtures was dissolved in 2 mL of dichloromethane. Controls were brepared by dissolving in 10 G in methanol or dichloromethane. All these 10 G solutions were filtered with a filter having a pore size of 0.2 μm and then diluted 500-fold with dichloromethane.

[2] = Composition ratio of DSPC and ICG: ICG dissolved in chloroform; format: physicochemical; settings: 47.2 mM DSPC in the ICG chloroform solution
Protocol: 0.5, 1 or 2 Molar Equivalents of DSPC was Added to 55 mg of ICG.
3 mL of chloroform was added to each of these ICG-DSPC mixtures. The mixtures were heated at 40° C. for two minutes, and ultrasonic irradiation was performed for one minute. […] These suspensions were filtered with a filter having a pore size of 0.45 μm to remove insoluble matters. Each of the filtrates was diluted 3000-fold with methanol.

## CC1(C)C(/C=C/C=C/C=C/C=C2/N(CCCCS(=O)(=O)[O-])c3ccc4ccccc4c3C2(C)C)=[N+](CCCCS(=O)(=O)[O-])c2ccc3ccccc3c21.[Na+] [ICG, indocyanine green]
[1]
  ICG dissolved in dichloromethane: approximately 0.6 mM
[2]
  concentration of ICG dissolved: 15700 µM
